Source: the supplement of paper PMC11451515

System: SEM cells
Assay: cell viability relative to DMSO control; higher = less cytotoxic
Conditions: 48 h
Summary of the method: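 Viability is a per-plate percentage relative to DMSO wells, with cell-free wells as background. CellTiter-Glo One luminescence was read after 48 h at 37°C on 1536-well plates (5 μl) of NOMO1 or SEM (500 cells/well) or P12-Ichikawa (1000 cells/well) leukemia cells. The cells had been adapted for at least four passages in each medium and pin-dosed with library compounds in DMSO from 47 μM to 0.79 nM in 11 threefold steps.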

[1] = HPLM + 10% dialyzed FBS, 0.000781 µM
[2] = HPLM + 10% dialyzed FBS, 0.00234 µM
[3] = HPLM + 10% dialyzed FBS, 0.00702 µM
[4] = HPLM + 10% dialyzed FBS, 0.0211 µM
[5] = HPLM + 10% dialyzed FBS, 0.0632 µM
[6] = HPLM + 10% dialyzed FBS, 0.19 µM
[7] = HPLM + 10% dialyzed FBS, 0.569 µM
[8] = HPLM + 10% dialyzed FBS, 1.71 µM
[9] = HPLM + 10% dialyzed FBS, 5.12 µM
[10] = HPLM + 10% dialyzed FBS, 15.4 µM
[11] = HPLM + 10% dialyzed FBS, 46.1 µM
[12] = RPMI 5 mM glucose + 10% FBS, 0.000781 µM
[13] = RPMI 5 mM glucose + 10% FBS, 0.00234 µM
[14] = RPMI 5 mM glucose + 10% FBS, 0.00702 µM
[15] = RPMI 5 mM glucose + 10% FBS, 0.0211 µM
[16] = RPMI 5 mM glucose + 10% FBS, 0.0632 µM
[17] = RPMI 5 mM glucose + 10% FBS, 0.19 µM
[18] = RPMI 5 mM glucose + 10% FBS, 0.569 µM
[19] = RPMI 5 mM glucose + 10% FBS, 1.71 µM
[20] = RPMI 5 mM glucose + 10% FBS, 5.12 µM
[21] = RPMI 5 mM glucose + 10% FBS, 15.4 µM
[22] = RPMI 5 mM glucose + 10% FBS, 46.1 µM
[23] = RPMI 5 mM glucose + 10% dialyzed FBS, 0.000781 µM
[24] = RPMI 5 mM glucose + 10% dialyzed FBS, 0.00234 µM
[25] = RPMI 5 mM glucose + 10% dialyzed FBS, 0.00702 µM
[26] = RPMI 5 mM glucose + 10% dialyzed FBS, 0.0211 µM
[27] = RPMI 5 mM glucose + 10% dialyzed FBS, 0.0632 µM
[28] = RPMI 5 mM glucose + 10% dialyzed FBS, 0.19 µM
[29] = RPMI 5 mM glucose + 10% dialyzed FBS, 0.569 µM
[30] = RPMI 5 mM glucose + 10% dialyzed FBS, 1.71 µM
[31] = RPMI 5 mM glucose + 10% dialyzed FBS, 5.12 µM
[32] = RPMI 5 mM glucose + 10% dialyzed FBS, 15.4 µM
[33] = RPMI 5 mM glucose + 10% dialyzed FBS, 46.1 µM

Row | Compound | cell viability [1] [%] | cell viability [2] [%] | cell viability [3] [%] | cell viability [4] [%] | cell viability [5] [%] | cell viability [6] [%] | cell viability [7] [%] | cell viability [8] [%] | cell viability [9] [%] | cell viability [10] [%] | cell viability [11] [%] | cell viability [12] [%] | cell viability [13] [%] | cell viability [14] [%] | cell viability [15] [%] | cell viability [16] [%] | cell viability [17] [%] | cell viability [18] [%] | cell viability [19] [%] | cell viability [20] [%] | cell viability [21] [%] | cell viability [22] [%] | cell viability [23] [%] | cell viability [24] [%] | cell viability [25] [%] | cell viability [26] [%] | cell viability [27] [%] | cell viability [28] [%] | cell viability [29] [%] | cell viability [30] [%] | cell viability [31] [%] | cell viability [32] [%] | cell viability [33] [%]
1 | N#Cc1c(NC(=O)c2cccc3ccccc23)sc2c1CCCC2 | 108 | 115 | 116 | 125 | 125 | 105 | 66 | 23.2 | 24.1 | 19.7 | 23 | 119 | 119 | 130 | 125 | 119 | 119 | 48.4 | 20.3 | 16.9 | 15.6 | 17.9 | 122 | 125 | 126 | 137 | 124 | 118 | 53.7 | 25.5 | 26.2 | 18 | 26.1
2 | C[S+]([O-])(=O)C1=CC=C(C=C1)C/2=C(/C(=O)OC2)C3=CC=CC=C3 | 96 | 102 | 105 | 107 | 103 | 115 | 104 | 115 | 115 | 79.7 | 94.1 | 100 | 107 | 104 | 119 | 114 | 122 | 104 | 95.1 | 102 | 66.9 | 11.4 | 89.4 | 105 | 115 | 111 | 112 | 120 | 119 | 117 | 124 | 75 | 71.6
3 | Cc1[nH]c2ccccc2c1CCNCc1ccc(/C=C/C(=O)NO)cc1 | 99.1 | 114 | 112 | 114 | 116 | 75.8 | 12.3 | 7.29 | 8.44 | 8.29 | 8.77 | 85.6 | 88.8 | 101 | 94.3 | 92.5 | 74.1 | 12.6 | 5.77 | 7.04 | 7.05 | 7.05 | 89.9 | 106 | 108 | 115 | 112 | 81.6 | 19.5 | 7.59 | 8.77 | 8.45 | 9.84
4 | C=C[C@H]1CN2CC[C@H]1C[C@H]2[C@H](O)c1ccnc2ccc(OC)cc12 | 91.2 | 99.2 | 93.3 | 97 | 106 | 116 | 104 | 86 | 125 | 96.8 | 74.3 | 90.8 | 88.7 | 84 | 89.7 | 105 | 99.2 | 104 | 90.7 | 102 | 94.5 | 50.4 | 85.2 | 98.2 | 93.4 | 93.8 | 92 | 96.9 | 80 | 80.7 | 90.9 | 102 | 70.2
5 | CN(NC(=O)CC(=O)NN(C)C(=S)c1ccccc1)C(=S)c1ccccc1 | 84.1 | 89.7 | 98.9 | 83.7 | 15.8 | 4.39 | 3.48 | 3.79 | 4.13 | 3.69 | 4.7 | 112 | 116 | 117 | 120 | 18.3 | 6.81 | 5.75 | 5.74 | 6.44 | 5.8 | 5.63 | 78.8 | 75.8 | 80.7 | 93.1 | 10.5 | 5.14 | 4.03 | 4.74 | 4.6 | 4.37 | 5.18
6 | COc1ncc(-c2ccc3nccc(-c4ccnnc4)c3c2)cc1N[S+](=O)([O-])c1ccc(F)cc1F | 81 | 71.8 | 60.5 | 66.9 | 59.4 | 50.4 | 43.9 | 30 | 21.1 | 6.8 | 6.02 | 79 | 65 | 74.8 | 61.7 | 51.9 | 46.7 | 37 | 19.2 | 14.2 | 6.8 | 5.84 | 98.1 | 79.9 | 67.8 | 68.7 | 64.6 | 54.4 | 51.9 | 26.5 | 16.7 | 6.57 | 5.89
7 | CCC(C)(C)c1ccc(CC(C)CN2C[C@@H](C)O[C@@H](C)C2)cc1 (some centres undefined) | 69 | 62.1 | 88.1 | 87.3 | 72.2 | 64.7 | 74.7 | 75.5 | 84.1 | 67.8 | 74.3 | 80 | 67.6 | 87.1 | 79.9 | 89.4 | 36.3 | 91.8 | 86.6 | 84.5 | 71.9 | 76.8 | 71 | 67.1 | 94.5 | 91.7 | 83.4 | 78.6 | 114 | 82.9 | 89.7 | 67.9 | 78
8 | C[C@]12CC[C@@H]3c4ccc(O)cc4C[C@@H](CCCCCCCCC[S+]([O-])CCCC(F)(F)C(F)(F)F)[C@H]3[C@@H]1CC[C@@H]2O (some centres undefined) | 123 | 112 | 114 | 118 | 113 | 112 | 125 | 117 | 119 | 126 | 109 | 89.1 | 84 | 82.8 | 93.2 | 85 | 80.4 | 82.4 | 99.2 | 80.8 | 83.7 | 86.3 | 120 | 124 | 105 | 111 | 110 | 112 | 125 | 114 | 103 | 102 | 81.6
9 | COc1ccc(-n2nc(C(N)=O)c3c2C(=O)N(c2ccc(N4CCCCC4=O)cc2)CC3)cc1 | 99.5 | 116 | 132 | 142 | 120 | 137 | 134 | 130 | 133 | 145 | 128 | 120 | 136 | 117 | 124 | 101 | 120 | 136 | 145 | 136 | 154 | 136 | – | – | – | – | – | – | – | – | – | – | –
10 | CC(C)C(=O)Oc1ccc(CO)cc1[C@H](CCN(C(C)C)C(C)C)c1ccccc1 | 34.1 | 81.6 | 97.9 | 80.4 | 74.6 | 83.3 | 82.8 | 81 | 82.3 | 76.2 | 72.4 | 32.5 | 92.1 | 91.8 | 99.3 | 74.4 | 92.5 | 81.7 | 67.5 | 101 | 80.3 | 89.5 | 35.5 | 91.9 | 92.2 | 95.3 | 74.9 | 89.4 | 97.8 | 85.7 | 114 | 96.2 | 99.8
11 | CN1\C(=C(\O)C2=CC=CC=C2[S+]1([O-])=O)C(=O)NC3=NC=C(C)S3 | 94.9 | 94.8 | 98.2 | 103 | 87.8 | 85.2 | 90.2 | 83.1 | 99.9 | 96.7 | 102 | 74.8 | 81.5 | 94.5 | 97.7 | 78 | 90.2 | 103 | 78.3 | 104 | 84 | 91.3 | 77.4 | 99.6 | 94.6 | 97 | 80.7 | 107 | 99.9 | 95.1 | 106 | 107 | 108
12 | CC(C)NC[C@@H](C(=O)N1CCN(c2ncnc3c2[C@H](C)C[C@H]3O)CC1)c1ccc(Cl)cc1 | 113 | 103 | 115 | 89.3 | 87.6 | 63.6 | 36.9 | 23.1 | 12.1 | 9.57 | 1.69 | 103 | 112 | 127 | 101 | 74.3 | 61.3 | 36.9 | 32.5 | 13.8 | 5.24 | 1.73 | 117 | 90.3 | 93 | 79.4 | 93.2 | 48.5 | 34.9 | 20.5 | 9.56 | 4.26 | 2.07
13 | COc1ccc(-c2nc(N3CCOCC3)c3sc(CN(C)c4ncc(C(=O)NO)cn4)cc3n2)cn1 | 88.4 | 101 | 67.8 | 34.5 | 6.86 | 6.43 | 6.72 | 6.14 | 6.01 | 5.89 | 4.98 | 90.5 | 83.6 | 49.9 | 20.5 | 6.31 | 6.48 | 5.87 | 5.83 | 6.2 | 5.41 | 3.98 | 97 | 108 | 78.3 | 37.7 | 7.5 | 7.3 | 6.64 | 6.58 | 5.98 | 6.08 | 4.38
14 | Cc1cnc(NC(=O)Nc2cc(Br)c(C)cc2OC[C@@H]2CNCCO2)cn1 | 95 | 112 | 110 | 115 | 117 | 107 | 65.8 | 31.8 | 22.6 | 24.4 | 22.5 | 103 | 114 | 78.6 | 105 | 109 | 110 | 91 | 33 | 27.5 | 33.8 | 17.5 | 108 | 101 | 95.2 | 106 | 100 | 98.1 | 66.8 | 21.9 | 19.7 | 21.8 | 17.2
15 | COc1cc2c(cc1OC)CC(=O)N(CCCN(C)C[C@H]1Cc3cc(OC)c(OC)cc31)CC2.Cl | 102 | 96.8 | 116 | 115 | 112 | 125 | 114 | 111 | 112 | 114 | 105 | 99.2 | 105 | 96.3 | 114 | 113 | 107 | 107 | 95.7 | 111 | 92.9 | 93.4 | 93.6 | 112 | 108 | 117 | 104 | 88.3 | 105 | 104 | 103 | 113 | 92
